Entries after “also recorded” stand apart in the source; their conditions may differ.

Test [1] has as its system mice with subarachnoid hemorrhage. The test can be described thus: Modified Garcia neurological score in subarachnoid hemorrhage mice. The note with it: SAH mice, 2 days post-SAH, maximum score 18, 3 mg/kg daily for 2 days. Type of test: in vivo, mouse. As for the experimental part:
Neurological Function Assessment: Neurological function was assessed utilizing the modified Garcia score, as previously described (6). The neurological assessment consists of 6 domains: spontaneous activity, spontaneous movement of all 4 limbs, forepaw outstretching, climbing, body proprioception and response to vibrissae touch. Two blinded observers conducted the neurological assessment 2 days after SAH. The maximum score is 18, indicative of normal neurological function.

In a further test the target is wild-type CFTR (Homo sapiens, UniProt P13569). The conditions noted are these: demonstrated earlier (15); cited from earlier work.
Chain of wild-type CFTR (P13569 whole entry, species assumed): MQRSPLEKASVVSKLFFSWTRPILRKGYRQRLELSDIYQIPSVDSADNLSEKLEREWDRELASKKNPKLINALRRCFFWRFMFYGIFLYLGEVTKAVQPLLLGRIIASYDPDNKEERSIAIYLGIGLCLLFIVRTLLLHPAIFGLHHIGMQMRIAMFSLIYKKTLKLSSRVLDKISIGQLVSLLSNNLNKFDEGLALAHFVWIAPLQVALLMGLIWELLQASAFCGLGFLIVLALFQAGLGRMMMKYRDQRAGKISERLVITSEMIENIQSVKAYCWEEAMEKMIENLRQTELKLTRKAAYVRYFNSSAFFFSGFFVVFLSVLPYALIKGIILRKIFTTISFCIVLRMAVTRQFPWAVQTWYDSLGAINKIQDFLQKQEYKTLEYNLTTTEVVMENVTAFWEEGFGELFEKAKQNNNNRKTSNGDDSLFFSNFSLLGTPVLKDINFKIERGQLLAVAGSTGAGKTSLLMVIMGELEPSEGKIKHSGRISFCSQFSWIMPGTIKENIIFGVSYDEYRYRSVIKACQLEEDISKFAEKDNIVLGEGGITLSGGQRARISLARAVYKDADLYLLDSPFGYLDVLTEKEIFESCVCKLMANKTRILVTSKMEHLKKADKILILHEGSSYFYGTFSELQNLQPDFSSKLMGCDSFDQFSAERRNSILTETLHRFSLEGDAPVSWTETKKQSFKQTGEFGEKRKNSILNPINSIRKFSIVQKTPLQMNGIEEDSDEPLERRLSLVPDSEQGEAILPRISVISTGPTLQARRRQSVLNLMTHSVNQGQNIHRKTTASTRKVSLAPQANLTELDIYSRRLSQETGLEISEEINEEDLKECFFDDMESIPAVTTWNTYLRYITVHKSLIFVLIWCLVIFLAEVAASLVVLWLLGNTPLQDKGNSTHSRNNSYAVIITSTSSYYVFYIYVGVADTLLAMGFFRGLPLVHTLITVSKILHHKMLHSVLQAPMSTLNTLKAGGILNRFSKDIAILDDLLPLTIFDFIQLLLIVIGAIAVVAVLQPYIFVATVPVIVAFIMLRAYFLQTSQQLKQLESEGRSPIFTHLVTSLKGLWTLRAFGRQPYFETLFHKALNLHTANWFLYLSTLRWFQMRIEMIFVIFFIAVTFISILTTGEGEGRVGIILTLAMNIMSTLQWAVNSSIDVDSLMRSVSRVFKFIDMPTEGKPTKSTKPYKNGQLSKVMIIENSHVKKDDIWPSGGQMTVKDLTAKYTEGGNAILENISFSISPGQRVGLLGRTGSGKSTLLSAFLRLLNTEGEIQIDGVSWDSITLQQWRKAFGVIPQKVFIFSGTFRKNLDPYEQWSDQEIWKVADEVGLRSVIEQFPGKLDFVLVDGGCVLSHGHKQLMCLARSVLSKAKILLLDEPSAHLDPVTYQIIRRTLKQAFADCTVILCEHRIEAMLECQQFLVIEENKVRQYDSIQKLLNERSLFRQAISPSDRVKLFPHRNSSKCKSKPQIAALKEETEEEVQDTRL

With `O=C(Nc1ncc(C(c2ccccc2Cl)N2CCC(O)C2)s1)C1(c2ccc3c(c2)OCO3)CC1` (centres unmarked) [C18, 1-(benzo[d][1,3]dioxol-5-yl)-N-(5-((2-chlorophenyl)(3-hydroxypyrrolidin-1-yl)methyl)thiazol-2-yl)cyclopropanecarboxamide], the “Modified Garcia score (neurological function)” value in test [1] is given as “comparable to sham-operated mice; also recorded: restores the neurological score to the sham level”. In addition, at wild-type CFTR, the “interaction with wild-type CFTR / CFTR expression at the plasma membrane” value was “directly interacts with and stabilizes wild-type CFTR”.

Values taken from US20210346359A1, “Use of CFTR Modulators For Treating Cerebrovascular Conditions” (Qanatpharma AG, priority 2018, published 2021).
